Reference: patent publication US20240246968A1, “SMALL MOLECULE INHIBITORS OF KRAS G12C MUTANT” (Merck Sharp & Dohme LLC, priority 2021, published 2024)

Legend:
[1] = target: Gppcp-bound recombinant K-Ras4B G12C mutant protein (amino acids 1-169, C51S/C80L/C118S) (Homo sapiens, UniProt P01116, C118S/C51S/C80L/G12C); assay: KRASG12C binding assay (LC-MS, compound binding rate); settings: test compound final concentration 0.5 μM, 25° C., 1 hour
How it was run: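 Gppcp-bound K-Ras4B G12C (1-169; C51S/C80L/C118S), 50 nM in TBS with 0.1 mM TCEP, 0.25 mM MgCl2, 50 μM Gppcp, exposed to compound at 0.5 μM final for 1 h at 25 °C. Quenched with formic acid and analysed by intact-protein ESI LC-MS. Binding rate is the mono-adduct signal over total KRAS signal; graded A (≥80%) to E (<20%).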

[2] = target: T1, interaction between recombinant K-Ras4B G12C mutant protein and cRAF RAS-binding domain (cRAF-RBD) (Homo sapiens, UniProt P01116, G12C); assay: Inhibitory activity on interaction between KRAS G12C and cRAF (Alpha technology); assay type: biochemical; settings: GMPPNP-bound KRAS G12C incubated with compound at 25° C. for 1 hour, then cRAF-RBD; Alpha signal
T1 construct: made in house; host or cells: E. coli
How it was run: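 GMPPNP-loaded His-tagged KRAS G12C (aa 1-169, E. coli) preincubated with compound 1 h at 25° C in Tris pH 7.5, 100 mM NaCl, 1 mM MgCl2, TCEP, 0.1% Tween 20; cRAF-RBD (aa 50-132) added, 1.5 h RT, Alpha signal read. DMSO = 0%, GDP-bound KRAS = 100% inhibition; IC50 from dose titration fit.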

MIA PaCa-2 cells = assay: Growth inhibition activity on KRAS-G12C mutant cell line (MIA PaCa-2), CellTiter-Glo 3D; assay type: cell-based, human; settings: MIA PaCa-2, 3-day culture with compound
How it was run: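 Cells in RPMI1640 with 10% FBS were seeded in U-bottom plates and cultured 1 day at 37 °C, 5% CO2, then exposed to compound (0.2% DMSO final) for 3 more days. Viability read by CellTiter-Glo 3D luminescence; IC50 from growth inhibition relative to untreated wells.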

Row | SMILES | binding rate [1] | IC50 [2] [nM] | IC50 (MIA PaCa-2 cells) [nM]
1 | COc1c(-c2cccn3c(C(=O)c4cc(F)c(NC(=O)/C=C/CN[C@H]5CC[C@H](OC)CC5)c(F)c4)ccc23)c(C(F)(F)F)cc2c1nc(C)n2C (single isomer, unassigned) [Example 60-1, (E)-N-(2,6-difluoro-4-(8-(4-methoxy-1,2-dimethyl-6-(trifluoromethyl)-1H-benzo[d]imidazol-5-yl)indolizine-3-carbonyl)phenyl)-4-(((1r,4r)-4-methoxycyclohexyl)amino)but-2-enamide] | A (A binding rate of 80% or more is rated “A”) | 1600 | 1600
2 | COc1c(-c2cccn3c(C(=O)c4cc(F)c(NC(=O)/C=C/CN[C@H]5CC[C@H](OC)CC5)c(F)c4)ccc23)c(C(F)(F)F)cc2c1nc(C)n2C (single isomer, unassigned) [Example 60-2, (E)-N-(2,6-difluoro-4-(8-(4-methoxy-1,2-dimethyl-6-(trifluoromethyl)-1H-benzo[d]imidazol-5-yl)indolizine-3-carbonyl)phenyl)-4-(((1r,4r)-4-methoxycyclohexyl)amino)but-2-enamide] | A (A binding rate of 80% or more is rated “A”) | 26 | 15
3 | COc1c(-c2cccn3c(C(=O)c4cc(F)c(NC(=O)/C=C/CNC5CCOCC5)c(F)c4)ccc23)c(C(F)(F)F)cc2c1nc(C)n2C (single isomer, unassigned) [Example 61-1, (E)-N-(2,6-difluoro-4-(8-(4-methoxy-1,2-dimethyl-6-(trifluoromethyl)-1H-benzo[d]imidazol-5-yl)indolizine-3-carbonyl)phenyl)-4-((tetrahydro-2H-pyran-4-yl)amino)but-2-enamide] | B (a binding rate of 60% or more and less than 80% is rated “B”) | 1900 | 2300
4 | COc1c(-c2cccn3c(C(=O)c4cc(F)c(NC(=O)/C=C/CNC5CCOCC5)c(F)c4)ccc23)c(C(F)(F)F)cc2c1nc(C)n2C (single isomer, unassigned) [Example 61-2, (E)-N-(2,6-difluoro-4-(8-(4-methoxy-1,2-dimethyl-6-(trifluoromethyl)-1H-benzo[d]imidazol-5-yl)indolizine-3-carbonyl)phenyl)-4-((tetrahydro-2H-pyran-4-yl)amino)but-2-enamide] | A (A binding rate of 80% or more is rated “A”) | 28 | 10
5 | CO[C@H]1CC[C@H](NC/C=C/C(=O)Nc2c(F)cc(C(=O)c3ccc4c(-c5c(C(C)C)cc6c(nc(C)n6C)c5Cl)cccn34)cc2F)CC1 (single isomer, unassigned) [Example 71-1, (E)-N-(4-(8-(4-chloro-6-isopropyl-1,2-dimethyl-1H-benzo[d]imidazol-5-yl)indolizine-3-carbonyl)-2,6-difluorophenyl)-4-(((1r,4r)-4-methoxycyclohexyl)amino)but-2-enamide] | A (A binding rate of 80% or more is rated “A”) | 43 | 130
6 | CO[C@H]1CC[C@H](NC/C=C/C(=O)Nc2c(F)cc(C(=O)c3ccc4c(-c5c(C(C)C)cc6c(nc(C)n6C)c5Cl)cccn34)cc2F)CC1 (single isomer, unassigned) [Example 71-2, (E)-N-(4-(8-(4-chloro-6-isopropyl-1,2-dimethyl-1H-benzo[d]imidazol-5-yl)indolizine-3-carbonyl)-2,6-difluorophenyl)-4-(((1r,4r)-4-methoxycyclohexyl)amino)but-2-enamide] | A (A binding rate of 80% or more is rated “A”) | 220 | 570
7 | COc1c(-c2cccn3c(C(=O)c4cc(F)c(NC(=O)/C=C/CN[C@H]5CC[C@H](OC)CC5)c(F)c4)cnc23)c(C(F)(F)F)cc2c1nc(C)n2C (single isomer, unassigned) [Example 83-1, (E)-N-(2,6-difluoro-4-(8-(4-methoxy-1,2-dimethyl-6-(trifluoromethyl)-1H-benzo[d]imidazol-5-yl)imidazo[1,2-a]pyridine-3-carbonyl)phenyl)-4-(((1r,4r)-4-methoxycyclohexyl)amino)but-2-enamide] | A (A binding rate of 80% or more is rated “A”) | 16 | 16
8 | COc1c(-c2cccn3c(C(=O)c4cc(F)c(NC(=O)/C=C/CN[C@H]5CC[C@H](OC)CC5)c(F)c4)cnc23)c(C(F)(F)F)cc2c1nc(C)n2C (single isomer, unassigned) [Example 83-2, (E)-N-(2,6-difluoro-4-(8-(4-methoxy-1,2-dimethyl-6-(trifluoromethyl)-1H-benzo[d]imidazol-5-yl)imidazo[1,2-a]pyridine-3-carbonyl)phenyl)-4-(((1r,4r)-4-methoxycyclohexyl)amino)but-2-enamide] | B (a binding rate of 60% or more and less than 80% is rated “B”) | 920 | 850
9 | CCc1nc2c(-c3c(C(F)(F)F)cc4c(nc(C)n4C)c3OC)cccn2c1C(=O)c1cc(F)c(NC(=O)/C=C/CN[C@H]2CC[C@H](OC)CC2)c(F)c1 (single isomer, unassigned) [Example 102-1, (E)-N-(4-(2-ethyl-8-(4-methoxy-1,2-dimethyl-6-(trifluoromethyl)-1H-benzo[d]imidazol-5-yl)imidazo[1,2-a]pyridine-3-carbonyl)-2,6-difluorophenyl)-4-(((1r,4r)-4-methoxycyclohexyl)amino)but-2-enamide] | A (A binding rate of 80% or more is rated “A”) | 57.2 | 20.1
10 | CCc1nc2c(-c3c(C(F)(F)F)cc4c(nc(C)n4C)c3OC)cccn2c1C(=O)c1cc(F)c(NC(=O)/C=C/CN[C@H]2CC[C@H](OC)CC2)c(F)c1 (single isomer, unassigned) [Example 102-2, (E)-N-(4-(2-ethyl-8-(4-methoxy-1,2-dimethyl-6-(trifluoromethyl)-1H-benzo[d]imidazol-5-yl)imidazo[1,2-a]pyridine-3-carbonyl)-2,6-difluorophenyl)-4-(((1r,4r)-4-methoxycyclohexyl)amino)but-2-enamide] | C (a binding rate of 40% or more and less than 60% is rated “C”) | 2440 | 1460
11 | COc1c(-c2cccn3c(C(=O)c4cc(F)c(NC(=O)/C=C/CNC5(C)CC5)c(F)c4)cnc23)c(C(F)(F)F)cc2c1nc(C)n2C (single isomer, unassigned) [Example 105-1, (E)-N-(2,6-difluoro-4-(8-(4-methoxy-1,2-dimethyl-6-(trifluoromethyl)-1H-benzo[d]imidazol-5-yl)imidazo[1,2-a]pyridine-3-carbonyl)phenyl)-4-((1-methylcyclopropyl)amino)but-2-enamide] | A (A binding rate of 80% or more is rated “A”) | 29.8 | 23.1
12 | COc1c(-c2cccn3c(C(=O)c4cc(F)c(NC(=O)/C=C/CNC5(C)CC5)c(F)c4)cnc23)c(C(F)(F)F)cc2c1nc(C)n2C (single isomer, unassigned) [Example 105-2, (E)-N-(2,6-difluoro-4-(8-(4-methoxy-1,2-dimethyl-6-(trifluoromethyl)-1H-benzo[d]imidazol-5-yl)imidazo[1,2-a]pyridine-3-carbonyl)phenyl)-4-((1-methylcyclopropyl)amino)but-2-enamide] | C (a binding rate of 40% or more and less than 60% is rated “C”) | 1450 | 943
13 | COc1c(-c2cccn3c(C(=O)c4cc(F)c(NC(=O)/C=C/CNC5(C)CC5)c(F)c4)c(C)nc23)c(C(F)(F)F)cc2c1nc(C)n2C (single isomer, unassigned) [Example 109-1, (E)-N-(2,6-difluoro-4(8-(4-methoxy-1,2-dimethyl-6-(trifluoromethyl)-1H-benzo[d]imidazol-5-yl)-2-methylimidazo[1,2-a]pyridine-3-carbonyl)phenyl)-4-((1-methylcyclopropyl)amino)but-2-enamide] | A (A binding rate of 80% or more is rated “A”) | 19.2 | 21.6
14 | COc1c(-c2cccn3c(C(=O)c4cc(F)c(NC(=O)/C=C/CNC5(C)CC5)c(F)c4)c(C)nc23)c(C(F)(F)F)cc2c1nc(C)n2C (single isomer, unassigned) [Example 109-2, (E)-N-(2,6-difluoro-4(8-(4-methoxy-1,2-dimethyl-6-(trifluoromethyl)-1H-benzo[d]imidazol-5-yl)-2-methylimidazo[1,2-a]pyridine-3-carbonyl)phenyl)-4-((1-methylcyclopropyl)amino)but-2-enamide] | D (a binding rate of 20% or more and less than 40% is rated “D”) | 1210 | 784
